Results from US10765651B2, “Co-crystals of substituted glycine and uses thereof” (SyneuRx International (Taiwan) Corp., priority 2017, dated 2020).
Where two headings read alike, the source gives them in different places.

Tests used:
[1] = Hygroscopicity test, condition 3 (dynamic vapor sorption, 0 to 90 to 0% RH); format: physicochemical; conditions: DVS, 25° C.
Experimental: Measurement were taken from 0 to 90 to 0% RH at 25° C. with 10% RH per step with equilibration set to dm/dt+0.01%/min for 10 min or 180 min/step.

[2] = Hygroscopicity test of fumaric acid co-crystals under ambient conditions; format: physicochemical
Experimental: 0.1 to 0.5 g of each of 1:1, 2:1, 3:1, and 6:1 N-methylglycine co-crystals were placed in the vial under the ambient conditions. The weight changes at various time points of each co-crystal were measured and illustrated in Table 4 below.

[3] = Hygroscopicity test, condition 2 (humidity chamber, weight change); format: physicochemical; conditions: for Weight change (%): dry before (change on drying to 0 hr weight)
[4] = 70-75% RH, room temperature, 3 days
[5] = DVS, 0 to 70 to 0% RH, 25° C.
Experimental: Measurement were taken from 0 to 70 to 0% RH at 25° C. with 10% RH per step with equilibration set to dm/dt+0.01%/min for 10 min or 180 min/step.

[6] = 30° C., 75% RH, 5 hr, listed as 1:1 N-methylglycine:DL-tartaric acid co-crystal
[7] = 30° C., 75% RH, 72 hr, listed as 2:1 N-methylglycine:L-tartaric acid co-crystal

Row | Compound | Change In Mass (%) ([1]; RH 70%) | Change In Mass (%) ([1]; RH 90%) | Change In Mass (%) ([2]; 21 hr) | Change In Mass (%) ([2]; 45 hr) | Change In Mass (%) ([2]; 48 hr) | Weight ([3]; 30° C., 75% RH, 0 hr) [g] | Weight ([3]; 30° C., 75% RH, 1 hr) [g] | Weight change (%), water absorbed ([3]; 30° C., 75% RH, 1 hr) | Weight ([3]; 30° C., 75% RH, 2 hr) [g] | Weight change (%), water absorbed ([3]; 30° C., 75% RH, 2 hr) | Weight ([3]; 30° C., 75% RH, 3 hr) [g] | Weight change (%), water absorbed ([3]; 30° C., 75% RH, 3 hr) | Weight ([3]; 30° C., 75% RH, 5 hr) [g] | Weight change (%), water absorbed ([3]; 30° C., 75% RH, 5 hr) | Weight ([3]; 30° C., 75% RH, 24 hr) [g] | Weight change (%), water absorbed ([3]; 30° C., 75% RH, 24 hr) | Weight ([3]; 30° C., 75% RH, 48 hr) [g] | Weight change (%), water absorbed ([3]; 30° C., 75% RH, 48 hr) | Weight ([3]; 30° C., 75% RH, 72 hr) [g] | Weight change (%), water absorbed ([3]; 30° C., 75% RH, 72 hr) | other results
1 | CNCC(=O)O.CNCC(=O)O.O=C(O)C(O)C(O)C(=O)O (racemic) [N-methylglycine:DL-tartaric acid 2:1 co-crystal] | 3.12 | 30.35 | – | – | – | – | – | – | – | – | – | – | – | – | – | – | – | – | – | – | –
2 | CNCC(=O)O.CNCC(=O)O.O=C(O)C(O)C(O)C(=O)O [N-methylglycine:L-tartaric acid 2:1 co-crystal] | 0.18 | 10.74 | – | – | – | – | – | – | – | – | – | – | – | – | – | – | – | – | – | – | –
3 | CNCC(=O)O.CNCC(=O)O.O=C(O)/C=C/C(=O)O [N-MG/FA = 2/1, N-methylglycine:fumaric acid (2:1 co-crystal)] | – | – | 6.29 | 7.08 | 7.12 | – | – | – | – | – | – | – | – | – | – | – | – | – | – | – | Change In Mass (%) ([2]; 15 hr): 5.81%; Change In Mass (%) ([2]; 64 hr): 7.49%
4 | CNCC(=O)O.CNCC(=O)O.O=C(O)C(O)C(O)C(=O)O [N-methylglycine:D-tartaric acid 2:1 co-crystal] | 0.31 | 14.27 | – | – | – | – | – | – | – | – | – | – | – | – | – | – | – | – | – | – | –
5 | CNCC(=O)O.CNCC(=O)O.O=C(O)C(O)C(O)C(=O)O [N-MG/D-TA = 2/1, N-methylglycine:D-tartaric acid 2:1 co-crystal] | 0.31 | 14.27 | – | – | – | – | – | – | – | – | – | – | – | – | – | – | – | – | – | – | Change In Mass (%) ([1]; RH 0%): 0.00%; Change In Mass (%) ([1]; RH 10%): 0.02%; Change In Mass (%) ([1]; RH 20%): 0.04%; Change In Mass (%) ([1]; RH 30%): 0.07%; Change In Mass (%) ([1]; RH 40%): 0.10%; Change In Mass (%) ([1]; RH 50%): 0.15%; Change In Mass (%) ([1]; RH 60%): 0.20%; Change In Mass (%) ([1]; RH 80%): 0.60%
6 | CNCC(=O)O.CNCC(=O)O.CNCC(=O)O.CNCC(=O)O.CNCC(=O)O.CNCC(=O)O.O=C(O)/C=C/C(=O)O [N-MG/FA = 6/1, N-methylglycine:fumaric acid (6:1 co-crystal)] | – | – | 25.14 | 47.59 | 48.84 | – | – | – | – | – | – | – | – | – | – | – | – | – | – | – | Change In Mass (%) ([2]; 15 hr): 18.30%; Change In Mass (%) ([2]; 64 hr): 56.36%
7 | CNCC(=O)O.O=C(O)C(O)C(O)C(=O)O [N-MG/L-TA = 1/1, N-methylglycine:L-tartaric acid (1:1) co-crystal] | – | – | – | – | – | 0.1432 | 0.1437 | (+0.3%) | 0.1437 | (+0.3%) | 0.1439 | (+0.4%) | 0.1439 | (+0.4%) | 0.1440 | (+0.5%) | 0.1440 | (+0.5%) | 0.1441 | (+0.6%) | Weight change (%), water absorbed ([3]; 30° C., 75% RH, 5 hr, listed as N-methylglycine:L-tartaric acid co-crystal): 0.4%; Outward (appearance) ([3]; 30° C., 75% RH, 72 hr): remained as white powder; Weight change (%), water absorbed ([3]; 30° C., 75% RH, 72 hr, listed as 1:1 N-methylglycine:L-tartaric acid co-crystal): 0.6%; Hygroscopicity comparison ([3]; 30° C., 75% RH, listed as 1:1 N-methylglycine:L-tartaric acid co-crystal): much less hygroscopic than 2:1 N-methylglycine:L-tartaric acid co-crystal; Outward (appearance) ([3]; dry before): White; Weight ([3]; dry before): 0.1434 g; Weight change (%) [3]: (−0.1%); Appearance after exposure to high humidity [4]: remained as fine white powder; Hygroscopicity comparison [4]: much less hygroscopic than the 2:1 co-crystal; Hygroscopicity comparison [5]: less hygroscopic than N-methylgycine or L-tartaric acid individually
8 | CNCC(=O)O.O=C(O)/C=C/C(=O)O [N-MG/FA = 1/1, N-methylglycine:fumaric acid (1:1 co-crystal)] | – | – | 0.96 | 0.96 | 0.96 | – | – | – | – | – | – | – | – | – | – | – | – | – | – | – | Hygroscopicity comparison [2]: much less hygroscopic than the 2:1, 3:1, and 6:1 co-crystals; Change In Mass (%) ([2]; 1 hr): 0.48%; Change In Mass (%) ([2]; 2 hr): 0.67%; Change In Mass (%) ([2]; 3 hr): 0.57%; Change In Mass (%) ([2]; 4 hr): 0.57%; Change In Mass (%) ([2]; 5 hr): 0.57%; Change In Mass (%) ([2]; 24 hr): 0.96%; Change In Mass (%) ([2]; 96 hr): 0.96%
9 | CNCC(=O)O.O=C(O)C(O)C(O)C(=O)O (racemic) [N-MG/DL-TA = 1/1, N-methylglycine:DL-tartaric acid 1:1 co-crystal] | – | – | – | – | – | 0.1302 | 0.1349 | (+3.6%) | 0.1399 | (+7.4%) | 0.1469 | (+12.8%) | 0.1545 | (+18.7%) | 0.1819 | (+39.7%) | 0.1819 | (+39.7%) | 0.1823 | (+40.0%) | Outward (appearance) ([3]; 30° C., 75% RH, 2 hr): Wet; Outward (appearance) ([3]; 30° C., 75% RH, 5 hr): Partial; Outward (appearance) [3, 6]: started to turn into a partial liquid; Weight change (%), water absorbed [3, 6]: 18.7%; Outward (appearance) ([3]; 30° C., 75% RH, 24 hr): 50%; Hygroscopicity comparison ([3]; 30° C., 75% RH, listed as 1:1 N-methylglycine:DL-tartaric acid co-crystal): much less hygroscopic than 2:1 N-methylglycine:DL-tartaric acid co-crystal; Outward (appearance) ([3]; dry before): White; Weight ([3]; dry before): 0.1305 g; Weight change (%) [3]: (−0.2%)
10 | CNCC(=O)O.CNCC(=O)O.O=C(O)C(O)C(O)C(=O)O (racemic) [N-MG/DL-TA = 2/1, N-methylglycine:DL-tartaric acid 2:1 co-crystal] | 3.12 | 30.35 | – | – | – | 0.1628 | 0.1695 | (+4.1%) | 0.1768 | (+8.6%) | 0.1816 | (+11.5%) | 0.1877 | (+15.3%) | 0.2374 | (+45.8%) | 0.2423 | (+48.8%) | 0.2441 | (+49.9%) | Outward (appearance) ([3]; 30° C., 75% RH, 2 hr): Wet; Outward (appearance) ([3]; 30° C., 75% RH, 5 hr): Partial; Outward (appearance) ([3]; 30° C., 75% RH, 24 hr): Liquid; Outward (appearance) ([3]; dry before): White; Weight ([3]; dry before): 0.1628 g; Weight change (%) [3]: (−0%); Change In Mass (%) ([1]; RH 0%): 0.00%; Change In Mass (%) ([1]; RH 10%): 0.15%; Change In Mass (%) ([1]; RH 20%): 0.21%; Change In Mass (%) ([1]; RH 30%): 0.26%; Change In Mass (%) ([1]; RH 40%): 0.77%; Change In Mass (%) ([1]; RH 60%): 2.03%; Change In Mass (%) ([1]; RH 80%): 8.12%
11 | CNCC(=O)O.CNCC(=O)O.O=C(O)C(O)C(O)C(=O)O [N-MG/L-TA = 2/1, N-methylglycine:L-tartaric acid 2:1 co-crystal] | 0.18 | 10.74 | – | – | – | 0.1455 | 0.1462 | (+0.4%) | 0.1463 | (+0.5%) | 0.1464 | (+0.6%) | 0.1465 | (+0.7%) | 0.1465 | (+0.7%) | 0.1465 | (+0.7%) | 0.1471 | (+1.1%) | Outward (appearance) ([3]; 30° C., 75% RH, 72 hr): Partial; Outward (appearance) [3, 7]: turned into a partial liquid; Weight change (%), water absorbed [3, 7]: 1.1%; Outward (appearance) ([3]; dry before): White; Weight ([3]; dry before): 0.1457 g; Weight change (%) [3]: (−0.1%); Appearance after exposure to high humidity [4]: turned into moisturized and somewhat sticky white solid; Change In Mass (%) ([1]; RH 0%): 0.00%; Change In Mass (%) ([1]; RH 10%): 0.01%; Change In Mass (%) ([1]; RH 20%): 0.03%; Change In Mass (%) ([1]; RH 30%): 0.05%; Change In Mass (%) ([1]; RH 40%): 0.07%; Change In Mass (%) ([1]; RH 50%): 0.09%; Change In Mass (%) ([1]; RH 60%): 0.13%; Change In Mass (%) ([1]; RH 80%): 0.32%
12 | CNCC(=O)O.CNCC(=O)O.CNCC(=O)O.O=C(O)/C=C/C(=O)O [N-MG/FA = 3/1, N-methylglycine:fumaric acid (3:1 co-crystal)] | – | – | 20.78 | 26.13 | 26.37 | – | – | – | – | – | – | – | – | – | – | – | – | – | – | – | Change In Mass (%) ([2]; 15 hr): 18.29%; Change In Mass (%) ([2]; 64 hr): 29.22%
